According to patent US20030017186A1, “Carboxylic acid fluorides as pesticides” (priority 1999, published 2003):

How the values were obtained:
[1] = system: House longhorn beetle (Hylotrupes bajulus); assay: Fumigation test in glass vessel, house longhorn beetles; assay type: in vivo; conditions: HYLOBA beetles; Example 5; ACF 50.6/48.2/51.4 g/m^3, SF 47.4/44.6/41 g/m^3 (1st/2nd/3rd fumigation); 23/23/22° C.
Text: (§1) b1) House longhorn beetle (Hylotrupes bajulus)=HYLOBA
(§2) The test organisms, separated by species, were placed into a glass vessel measuring 30 cm×30 cm×60 cm, which was sealed with a glass lid so as to be airtight. The adults and the larvae of the mealworm beetle (Tenebrio molitor) and the broad-horned flour beetle (Gnathocerus cornutus) were placed into small glass vessels approximately 5 cm in diameter, which were closed with a gauze lid and in which they could freely move about. The larvae of the rice weevil had burrowed into seeds of grain. The wood pest larvae were inserted into small blocks of wood measuring 5 cm×2.5 cm×2 cm. The openings were sealed with wads of cotton wool. Only one each of the larvae of the house longhorn beetle (Hylotrupes bajulus) was inserted into a piece of wood, while 6-8 larvae of the common furniture beetle (Anobium punctatum) were inserted into each piece of wood.
(§3) The respective gas was then introduced into the fumigation vessel through a gas line from a gas tank that contained the specified amount of gas. After a defined time period, the fumigation vessel was purged with compressed air. The discharged gas was purified by an attached gas scrubber.
(§4) The beetles were observed until they died. This point was recorded for each species. The larvae of the wood pests as well as the larvae of the rice weevil (Sitophilus oryzae) had to be picked out of the wood or the grain to check their condition. If any of the animals were still alive, the wooden test blocks remaining in the vessel were fumigated again and were reexamined after the corresponding time span had elapsed. The same number of animals in the untreated control was also checked at each point.
(§5) The vitality of the animals was checked at certain time intervals. The beetles could be observed through the fumigation vessel. This was also true for the larvae of the mealworm beetle and the broad-horned flour beetle. The wooden test blocks of the wood pest larvae were opened with hammer and chisel. Tweezers were used to pull the rice weevil larvae out of the grain seeds. The exact time intervals and the number of the evaluated pests were documented in the test results.

[2] = system: House longhorn beetle (Hylotrupes bajulus) larvae; assay: Fumigation test in glass vessel, house longhorn beetle larvae in wood blocks; assay type: in vivo; conditions: HYLOBA larvae in wood blocks; Example 5; ACF 50.6/48.2/51.4 g/m^3, SF 47.4/44.6/41 g/m^3 (1st/2nd/3rd fumigation); 23/23/22° C.
Text: as §1, §2, §3, §4, §5

[3] = system: Common furniture beetle (Anobium punctatum); assay: Fumigation test in glass vessel, common furniture beetles; assay type: in vivo; conditions: ANOBPU beetles; Example 5; ACF 50.6/48.2/51.4 g/m^3, SF 47.4/44.6/41 g/m^3 (1st/2nd/3rd fumigation); 23/23/22° C.
Text: (§6) b2) Common furniture beetle (Anobium punctatum)=[…]
as §2, §3, §4, §5

[4] = system: Common furniture beetle (Anobium punctatum) larvae; assay: Fumigation test in glass vessel, common furniture beetle larvae in wood blocks; assay type: in vivo; conditions: ANOBPU larvae in wood blocks; Example 5; ACF 50.6/48.2/51.4 g/m^3, SF 47.4/44.6/41 g/m^3 (1st/2nd/3rd fumigation); 23/23/22° C.
Text: as §6, §2, §3, §4, §5

[5] = system: Mealworm beetle (Tenebrio molitor); assay: Fumigation test in glass vessel, mealworm beetles; assay type: in vivo; conditions: TENEMO beetles; Example 5; ACF 50.6/48.2/51.4 g/m^3, SF 47.4/44.6/41 g/m^3 (1st/2nd/3rd fumigation); 23/23/22° C.
Text: (§7) a1) Mealworm beetle (Tenebrio molitor)=TENEMO
as §2, §3, §4, §5

[6] = system: Mealworm beetle (Tenebrio molitor) larvae; assay: Fumigation test in glass vessel, mealworm beetle larvae; assay type: in vivo; conditions: TENEMO larvae; Example 5; ACF 50.6/48.2/51.4 g/m^3, SF 47.4/44.6/41 g/m^3 (1st/2nd/3rd fumigation); 23/23/22° C.
Text: as §7, §2, §3, §4, §5

[7] = system: Rice weevil (Sitophilus oryzae); assay: Fumigation test in glass vessel, rice weevils; assay type: in vivo; conditions: SITTOR beetles; Example 5; ACF 50.6/48.2/51.4 g/m^3, SF 47.4/44.6/41 g/m^3 (1st/2nd/3rd fumigation); 23/23/22° C.
Text: (§8) a2) Rice weevil (Sitophilus oryzae)=SITTOR
as §2, §3, §4, §5

[8] = system: Rice weevil (Sitophilus oryzae) larvae; assay: Fumigation test in glass vessel, rice weevil larvae in grain seeds; assay type: in vivo; conditions: SITTOR larvae in grain seeds; Example 5; ACF 50.6/48.2/51.4 g/m^3, SF 47.4/44.6/41 g/m^3 (1st/2nd/3rd fumigation); 23/23/22° C.
Text: as §8, §2, §3, §4, §5

[9] = system: Broad-horned flour beetle (Gnathocerus cornutus); assay: Fumigation test in glass vessel, broad-horned flour beetles; assay type: in vivo; conditions: GNATCO beetles; Example 5; ACF 50.6/48.2/51.4 g/m^3, SF 47.4/44.6/41 g/m^3 (1st/2nd/3rd fumigation); 23/23/22° C.
Text: (§9) a3) Broad-horned flour beetle (Gnathocerus cornutus)=GNATCO
as §2, §3, §4, §5

[10] = system: Broad-horned flour beetle (Gnathocerus cornutus) larvae; assay: Fumigation test in glass vessel, broad-horned flour beetle larvae; assay type: in vivo; conditions: GNATCO larvae; Example 5; ACF 50.6/48.2/51.4 g/m^3, SF 47.4/44.6/41 g/m^3 (1st/2nd/3rd fumigation); 23/23/22° C.
Text: as §9, §2, §3, §4, §5

[11] = system: Saw-toothed grain beetle (Oryzaephilus surinamensis); assay: Fumigation test in glass vessel, saw-toothed grain beetles; assay type: in vivo; conditions: ORYZSA beetles; Example 5; ACF 50.6/48.2/51.4 g/m^3, SF 47.4/44.6/41 g/m^3 (1st/2nd/3rd fumigation); 23/23/22° C.
Text: a4) Saw-toothed grain beetle (Oryzaephilus surinamensis)=ORYZSA
as §2, §3, §4, §5

[12] = system: American drywood termites (Cryptotermes brevis); assay: Termite control fumigation test, Cryptotermes brevis; assay type: in vivo; conditions: Example 6
Text: (§10) c) American drywood termites (Cryptotermes brevis)=CRYPBR, and Incisitermes tabogae=INCITA
as §2, §3, §4, §5

Incisitermes tabogae = assay: Termite control fumigation test, Incisitermes tabogae; assay type: in vivo; conditions: Example 6
Text: as §10, §2, §3, §4, §5

wood and storage pests = assay: Fumigation test, wood and storage pests (overall statements); assay type: in vivo; conditions: Example 5; wood and storage pests
Text: as §2, §3, §4, §5

termites = assay: Termite control fumigation test (overall statements); assay type: in vivo, Cryptotermes brevis, Incisitermes tabogae; conditions: Example 6; compared with those treated with acetyl fluoride
Text: as §10, §2, §3, §4
as §5, with “The wooden test blocks of the wood pest larvae were opened with hammer and chisel. Tweezers were used to pull the rice weevil larvae out of the grain seeds.” left out

[13] = CRYPBR termites, ACF 50.0/53.8 g/m^3, SF 47.8/44.8 g/m^3 (1st/2nd fumigation), 23.7/24° C.
[14] = INCITA termites, ACF 50.0/53.8 g/m^3, SF 47.8/44.8 g/m^3 (1st/2nd fumigation), 23.7/24° C.

For `O=S(=O)(F)F` [SF, sulfuryl fluoride, reference compound], the “Number alive, 30 min. after Start of Fumigation” value [1] was 4, the “Number alive, 1 hr. after Start of Fumigation” value (“Number alive, 1 hr. after Start” for short) [1] was 2 and the “Number alive, 3 hrs. after Start of Fumigation” value (shortened to “Number alive, 3 hrs. after Start”) [1] was 0. The “Number dead, 30 min. after Start of Fumigation” value (shortened to “Number dead, 30 min. after Start”) [1] was 0, the “Number dead, 1 hr. after Start of Fumigation” value (shortened to “Number dead, 1 hr. after Start”) [1] was 2 and the “Number dead, 3 hrs. after Start of Fumigation” value (shortened to “Number dead, 3 hrs. after Start”) [1] was 4. For the same compound, the “Number alive, 1 hr. after Start” value [2] was 3, the “Number alive, 3 hrs. after Start” value [2] was 0 and the “Number alive, 6 hrs after Start of Fumigation” value [2] was 0. For the same compound, the “Number dead, 1 hr. after Start” value [2] was 1, the “Number dead, 3 hrs. after Start” value [2] was 4 and the “Number dead, 6 hrs after Start of Fumigation” value [2] was 6. The “Number alive, 30 min. after Start of Fumigation” value [3] was 0, the “Number dead, 30 min. after Start” value [3] was 6 and the “Number alive, 1 hr. after Start” value [4] was 3. For the same compound, the “Number alive, 3 hrs. after Start” value [4] was 4, the “Number alive, 6 hrs after Start of Fumigation” value [4] was 0 and the “Number dead, 1 hr. after Start” value [4] was 0. For the same compound, the “Number dead, 3 hrs. after Start” value [4] was 0, the “Number dead, 6 hrs after Start of Fumigation” value [4] was 8 and the “Number alive, 30 min. after Start of Fumigation” value [5] was 0. The “Number dead, 30 min. after Start” value [5] was 10, the “Number alive, 30 min. after Start of Fumigation” value [6] was 1 and the “Number alive, 1 hr. after Start” value [6] was 1. The “Number alive, 3 hrs. after Start” value [6] was 0, the “Number dead, 30 min. after Start” value [6] was 4 and the “Number dead, 1 hr. after Start” value [6] was 4. For the same compound, the “Number dead, 3 hrs. after Start” value [6] was 5, the “Number alive, 30 min. after Start of Fumigation” value [7] was 0 and the “Number dead, 30 min. after Start” value [7] was 15. The “Number alive, 1 hr. after Start” value [8] was 0, the “Number dead, 1 hr. after Start” value [8] was 15 and the “Number alive, 30 min. after Start of Fumigation” value [9] was 0. For the same compound, the “Number dead, 30 min. after Start” value [9] was 15, the “Number alive, 30 min. after Start of Fumigation” value [10] was 15 and the “Number alive, 1 hr. after Start” value [10] was 0. For the same compound, the “Number dead, 30 min. after Start” value [10] was 0, the “Number dead, 1 hr. after Start” value [10] was 15 and the “Number alive, 30 min. after Start of Fumigation” value [11] was 0. The “Number dead, 30 min. after Start” value [11] was 15, the “Number alive, 30 min. after 1st Fumigation” value [12, 13] was 180 and the “Number alive, 1 hr. after 1st Fumigation” value [12, 13] was 60. For the same compound, the “Number alive, 3 hrs. after 1st Fumigation” value [12, 13] was 0, the “Number dead, 30 min. after 1st Fumigation” value [12, 13] was 0 and the “Number dead, 1 hr. after 1st Fumigation” value [12, 13] was 0. The “Number dead, 3 hrs. after 1st Fumigation” value [12, 13] was 120, the “Number of Cryptotermes still alive on reexamination after 24-hour observation period” value ([12]; out of 60 animals fumigated 1 hour, then 24-hour observation) was 7 and the “Condition of Incisitermes on reexamination after 24-hour observation period” value (Incisitermes tabogae; animals fumigated 1 hour, then 24-hour observation) was “dead”. The “Number alive, 30 min. after 1st Fumigation” value (Incisitermes tabogae; [14]) was 90, the “Number alive, 1 hr. after 1st Fumigation” value (Incisitermes tabogae; [14]) was 30 and the “Number alive, 3 hrs. after 1st Fumigation” value (Incisitermes tabogae; [14]) was 0. For the same compound, the “Number dead, 30 min. after 1st Fumigation” value (Incisitermes tabogae; [14]) was 0, the “Number dead, 1 hr. after 1st Fumigation” value (Incisitermes tabogae; [14]) was 0 and the “Number dead, 3 hrs. after 1st Fumigation” value (Incisitermes tabogae; [14]) was 60. For the same compound, the “Speed of action compared with acetyl fluoride” value (wood and storage pests) was “clearly acts more slowly than acetyl fluoride” and the “Liveliness of termites after 1 hour of fumigation” value (termites) was “more lively overall”.
